Source: patent US20060194805A1, “Capsaicin receptor agonists” (Neurogen Corporation, priority 2003, published 2006)

Biological target: T1, human capsaicin receptor (Homo sapiens, UniProt Q8NER1)
T1 construct: transfected with the pBK-CMV expression construct encoding the full length human capsaicin receptor; expressed in transfected cells
Assay: Calcium mobilization assay (determination of agonist activity), Example 7
Format: cell-based
Conditions: for EC50: HEK293 cells expressing human capsaicin receptor, FLUO-3 calcium fluorescence, read-out: EC50, capsaicin receptor agonist activity as described in Example 7
Excerpt: A cDNA encoding full length human capsaicin receptor (SEQ ID NO:1, 2 or 3 of U.S. Pat. No. 6,482,611) was subcloned in the plasmid pBK-CMV (Stratagene, La Jolla, Calif.) for recombinant expression in mammalian cells.
Human embryonic kidney (HEK293) cells were transfected with the pBK-CMV expression construct encoding the full length human capsaicin receptor using standard methods. […] Independent clones were isolated from this pool by limiting dilution to obtain clonal stable cell lines for use in subsequent experiments.
The culture medium is emptied from the 96 well plates and FLUO-3 AM calcium sensitive dye (Molecular Probes, Eugene, Oreg.) is added to each well (dye solution: 1 mg FLUO-3 AM, 440 μL DMSO and 440 μl 20% pluronic acid in DMSO, diluted 1:250 in Krebs-Ringer HEPES (KRH) buffer (25 mM HEPES, 5 mM KCl, 0.96 mM NaH2PO4, 1 mM MgSO4, 2 mM CaCl2, 5 mM glucose, 1 mM probenecid, pH 7.4), 50 μl diluted solution per well). Plates are covered with aluminum foil and incubated at 37° C. for 1-2 hours in an environment containing 5% CO2.
To measure the ability of a test compound to agonize or antagonize a calcium mobilization response in cells expressing capsaicin receptors to capsaicin or other vanilloid agonist, the EC50 of the agonist capsaicin is first determined. An additional 20 μl of KRH buffer and 1 μl DMSO is added to each well of cells, prepared as described above. 100 μl capsaicin in KRH buffer is automatically transferred by the FLIPR instrument to each well. Capsaicin-induced calcium mobilization is monitored using either FLUOROSKAN ASCENT (Labsystems; Franklin, Mass.) or FLIPR (fluorometric imaging plate reader system; Molecular Devices, Sunnyvale, Calif.) instruments. Data obtained between 30 and 60 seconds after agonist application are used to generate an 8-point concentration response curve, with final capsaicin concentrations of 1 nM to 3 μM. […] software (Synergy Software, Reading, Pa.) is used to fit the data to the equation: y=a*(1/(1+(b/x)c)) to determine the 50% excitatory concentration (EC50) for the response. In this equation, y is the maximum fluorescence signal, x is the concentration of the agonist or antagonist (in this case, capsaicin), a is the Emax, b corresponds to the EC50 value and c is the Hill coefficient. Determination of Agonist Activity
Test compounds are dissolved in DMSO, diluted in KRH buffer, and immediately added to cells prepared as described above. […] The final concentration of test compounds in the assay wells is between 0.1 nM and 5 μM.
The ability of a test compound to act as an agonist of the capsaicin receptor is determined by measuring the fluorescence response of cells expressing capsaicin receptors elicited by the compound as function of compound concentration.

T1 sequence (Q8NER1 whole entry): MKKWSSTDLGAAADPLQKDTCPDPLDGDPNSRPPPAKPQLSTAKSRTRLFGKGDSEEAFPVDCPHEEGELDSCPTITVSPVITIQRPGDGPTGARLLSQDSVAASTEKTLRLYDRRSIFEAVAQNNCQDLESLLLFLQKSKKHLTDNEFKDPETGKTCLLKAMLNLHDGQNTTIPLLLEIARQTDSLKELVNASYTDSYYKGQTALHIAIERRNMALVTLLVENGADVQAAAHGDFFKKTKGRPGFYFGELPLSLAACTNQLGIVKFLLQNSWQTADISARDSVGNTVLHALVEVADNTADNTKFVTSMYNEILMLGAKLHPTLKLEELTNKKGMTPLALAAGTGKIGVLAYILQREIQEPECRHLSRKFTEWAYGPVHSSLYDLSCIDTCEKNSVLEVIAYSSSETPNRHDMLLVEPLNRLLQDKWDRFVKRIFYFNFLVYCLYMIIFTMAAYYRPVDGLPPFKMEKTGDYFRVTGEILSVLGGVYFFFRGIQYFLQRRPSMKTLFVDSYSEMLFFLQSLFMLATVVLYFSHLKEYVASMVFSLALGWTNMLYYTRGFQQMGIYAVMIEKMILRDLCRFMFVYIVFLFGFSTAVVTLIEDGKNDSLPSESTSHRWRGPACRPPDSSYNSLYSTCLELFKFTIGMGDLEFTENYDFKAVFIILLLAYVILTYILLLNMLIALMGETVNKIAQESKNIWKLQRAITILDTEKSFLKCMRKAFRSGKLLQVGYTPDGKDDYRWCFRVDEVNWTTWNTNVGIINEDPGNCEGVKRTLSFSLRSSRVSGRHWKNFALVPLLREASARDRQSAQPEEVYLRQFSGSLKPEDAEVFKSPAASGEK

EC50 [nM]	EC90 (capsaicin positive control, calcium mobilization, read-out: approximate EC90 concentration) [nM]	Structure (SMILES)
< 1000		FC(F)(F)c1ccc(Nc2ncnc3cc(Br)ccc23)nc1 [Compound 1, (7-bromo-quinazolin-4-yl)-(5-trifluoromethyl-pyridin-2-yl)-amine]
< 1000		CC(C)(C)c1cc(Nc2ncnc3cc(Br)cnc23)no1 [Compound 2]
< 1000		C[C@@H]1CN(Cc2nc(Nc3ccc(C(C)(C)C)cc3)c3ccc(C(F)(F)F)cc3n2)C[C@H](C)O1 [Compound 3, (4-t-butyl-phenyl)-[2-(cis-2,6-dimethyl-morpholin-4-ylmethyl)-7-trifluoromethyl-quinazolin-4-yl)-amine]
< 1000		CCCn1c(CN(Cc2ccc(Cl)cc2Cl)Cc2c(OCC)ccc3ccccc23)nc2cc(F)ccc21 [Compound 55]
< 1000		O=C(NCc1ccccc1)c1cc(-c2cccc(Cl)c2)nc2ccncc12 [Compound 65, 2-(3-chloro-phenyl)-[1, 6]-naphthyridine-4-carboxylic acid benzylamide]
	~100	COc1cc(CNC(=O)CCCC/C=C/C(C)C)ccc1O [capsaicin]
